From patent US8802866B2, “Pyridinylimidazolone derivatives for the inhibition of PI3 kinases” (Merck Patent GmbH, priority 2009, dated 2014) come the findings set out here.

One data set concerns the target DNA-PK protein complex (Homo sapiens, UniProt P78527). Description: Biochemical DNA-PK assay (FlashPlate). Put shortly: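 Streptavidin-coated FlashPlate radiometric kinase assay, stopped with 200 mM EDTA, then wells washed with 0.9% NaCl and bound radioactivity counted. Blank (non-specific reaction) defined with a proprietary kinase inhibitor at 10 μM.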
Data set [1] deals with PI3K-dependent phosphorylation of PKB at Serin 473 in PC3 cells. Briefly: Cellular PI3K assay (P-S473-PKB Luminex assay in PC3 cells). Format: cell-based. The settings on record: Homo sapiens, PC-3, 0.5 h; PC3 cells, 30 min, serum-free, P-S473-PKB; read-out: IC50 (cell). Put shortly:
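PC3 cells were exposed for 30 min under serum-free conditions to 7 concentrations of compound, then lysed. Lysates were captured overnight at 4°C on anti-total-PKB Luminex beads and detected with P-S473-PKB antibody plus PE-labelled secondary.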

Another data set concerns the target PI3Kalpha (Homo sapiens, UniProt P42336). Briefly: Biochemical PI3Kalpha assay (neomycin SPA, lipid phosphorylation). The following applies: human recombinant GST-PI3K. Put shortly:
(§1)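 Recombinant PI3K incubated with lipid substrate and radioactive ATP for 120 min at room temperature with gentle stirring, then stopped with neomycin-coated PVT-SPA beads, ATP 60 mM and EDTA 6.2 mM in PBS. After 60 min bead binding and centrifugation, radioactive Ptdlns(3)P counted by scintillation.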

Data set [2] deals with recombinant PI3Kalpha (shortened form of the catalytic subunit) (Homo sapiens, UniProt P42336). Briefly: BIACORE PI3K binding assay (SPR). The settings on record: 25° C. Summed up: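 Contact time was 180 s and dissociation 240 s, in HEPES pH 7.40 buffer with 2% DMSO. Solvent-corrected, double-referenced data were fitted to a 1:1 model with mass transport.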
Chain of recombinant PI3Kalpha (shortened form of the catalytic subunit) (P42336 151-1068 limits assumed): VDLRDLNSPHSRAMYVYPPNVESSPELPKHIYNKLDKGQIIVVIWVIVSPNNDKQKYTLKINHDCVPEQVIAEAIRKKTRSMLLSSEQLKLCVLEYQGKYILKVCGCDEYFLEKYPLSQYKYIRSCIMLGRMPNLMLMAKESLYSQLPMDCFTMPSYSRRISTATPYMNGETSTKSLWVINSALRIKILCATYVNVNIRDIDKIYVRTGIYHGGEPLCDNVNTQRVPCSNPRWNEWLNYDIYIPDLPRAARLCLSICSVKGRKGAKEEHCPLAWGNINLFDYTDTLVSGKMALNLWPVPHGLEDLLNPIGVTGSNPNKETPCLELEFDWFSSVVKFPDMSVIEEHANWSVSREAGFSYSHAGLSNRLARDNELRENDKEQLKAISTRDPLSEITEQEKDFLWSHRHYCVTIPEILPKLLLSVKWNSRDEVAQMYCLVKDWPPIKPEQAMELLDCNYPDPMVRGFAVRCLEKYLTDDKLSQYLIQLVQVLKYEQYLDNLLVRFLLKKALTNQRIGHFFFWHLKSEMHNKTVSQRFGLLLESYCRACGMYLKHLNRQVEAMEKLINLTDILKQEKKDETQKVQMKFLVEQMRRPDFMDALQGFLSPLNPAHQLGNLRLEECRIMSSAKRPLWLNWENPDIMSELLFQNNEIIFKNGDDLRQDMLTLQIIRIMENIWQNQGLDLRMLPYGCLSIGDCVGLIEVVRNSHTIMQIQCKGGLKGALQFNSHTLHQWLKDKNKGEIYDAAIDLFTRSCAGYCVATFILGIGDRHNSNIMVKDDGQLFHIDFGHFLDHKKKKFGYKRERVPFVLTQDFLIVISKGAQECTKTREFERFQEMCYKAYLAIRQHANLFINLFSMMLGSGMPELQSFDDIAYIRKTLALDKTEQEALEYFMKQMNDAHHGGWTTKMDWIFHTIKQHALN
On the technique in general: SPR reads the build-up and loss of mass on a sensor chip optically.

Another data set addresses PI3Kbeta (Homo sapiens, UniProt P42338). Description: Biochemical PI3Kbeta assay (neomycin SPA, lipid phosphorylation). The settings on record: human recombinant GST-PI3K. Put shortly:
as §1

A further data set concerns the target T1, mTOR (Homo sapiens, UniProt P42345).
T1 construct: purchased Millipore 14-770
Description: Biochemical mTOR assay (Millipore mTOR assay kit). How it is done: The biochemical mTOR assay was carried out by the method described in the Millipore mTOR assay kit (catalogue number 14-770).

Each structure is given as a SMILES string. Where only a bound is given, the exact number is not on record here.

As a reminder, the IC50 is the midpoint of a concentration-inhibition curve. As usually defined, the Kd is the free concentration of one partner at which half of the binding sites on the other are occupied at equilibrium, for simple one-to-one binding. A word on the melting point: it is the temperature of the solid-liquid transition.

Chain of PI3Kalpha (P42336 whole entry): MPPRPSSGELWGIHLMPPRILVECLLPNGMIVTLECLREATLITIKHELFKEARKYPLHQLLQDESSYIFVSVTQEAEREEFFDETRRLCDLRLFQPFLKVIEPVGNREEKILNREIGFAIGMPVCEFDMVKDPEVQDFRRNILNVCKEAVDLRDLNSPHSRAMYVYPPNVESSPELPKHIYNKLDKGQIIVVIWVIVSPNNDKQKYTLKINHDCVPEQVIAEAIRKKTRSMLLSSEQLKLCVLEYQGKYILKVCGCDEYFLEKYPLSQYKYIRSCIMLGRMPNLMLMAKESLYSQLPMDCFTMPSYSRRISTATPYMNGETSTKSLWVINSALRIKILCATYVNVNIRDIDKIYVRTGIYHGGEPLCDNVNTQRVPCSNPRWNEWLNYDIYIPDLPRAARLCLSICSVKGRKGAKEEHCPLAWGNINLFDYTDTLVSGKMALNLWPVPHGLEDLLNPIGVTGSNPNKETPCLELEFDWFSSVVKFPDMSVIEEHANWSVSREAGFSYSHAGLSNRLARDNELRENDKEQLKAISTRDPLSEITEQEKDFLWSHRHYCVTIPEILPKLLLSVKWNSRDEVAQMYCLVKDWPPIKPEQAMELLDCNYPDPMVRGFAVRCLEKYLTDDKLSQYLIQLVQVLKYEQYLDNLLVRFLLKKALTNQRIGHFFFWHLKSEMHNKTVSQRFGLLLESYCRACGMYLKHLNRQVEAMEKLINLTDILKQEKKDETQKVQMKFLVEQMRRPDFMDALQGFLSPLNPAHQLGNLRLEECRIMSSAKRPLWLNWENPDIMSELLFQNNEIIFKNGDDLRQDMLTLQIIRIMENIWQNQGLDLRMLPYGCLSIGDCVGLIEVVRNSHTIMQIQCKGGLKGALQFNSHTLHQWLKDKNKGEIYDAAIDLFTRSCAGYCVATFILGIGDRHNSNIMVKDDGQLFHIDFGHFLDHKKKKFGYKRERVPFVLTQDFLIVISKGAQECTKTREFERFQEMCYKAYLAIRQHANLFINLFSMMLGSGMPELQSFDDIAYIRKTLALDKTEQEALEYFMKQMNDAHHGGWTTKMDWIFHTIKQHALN
Chain of PI3Kalpha (P27986 whole entry partner): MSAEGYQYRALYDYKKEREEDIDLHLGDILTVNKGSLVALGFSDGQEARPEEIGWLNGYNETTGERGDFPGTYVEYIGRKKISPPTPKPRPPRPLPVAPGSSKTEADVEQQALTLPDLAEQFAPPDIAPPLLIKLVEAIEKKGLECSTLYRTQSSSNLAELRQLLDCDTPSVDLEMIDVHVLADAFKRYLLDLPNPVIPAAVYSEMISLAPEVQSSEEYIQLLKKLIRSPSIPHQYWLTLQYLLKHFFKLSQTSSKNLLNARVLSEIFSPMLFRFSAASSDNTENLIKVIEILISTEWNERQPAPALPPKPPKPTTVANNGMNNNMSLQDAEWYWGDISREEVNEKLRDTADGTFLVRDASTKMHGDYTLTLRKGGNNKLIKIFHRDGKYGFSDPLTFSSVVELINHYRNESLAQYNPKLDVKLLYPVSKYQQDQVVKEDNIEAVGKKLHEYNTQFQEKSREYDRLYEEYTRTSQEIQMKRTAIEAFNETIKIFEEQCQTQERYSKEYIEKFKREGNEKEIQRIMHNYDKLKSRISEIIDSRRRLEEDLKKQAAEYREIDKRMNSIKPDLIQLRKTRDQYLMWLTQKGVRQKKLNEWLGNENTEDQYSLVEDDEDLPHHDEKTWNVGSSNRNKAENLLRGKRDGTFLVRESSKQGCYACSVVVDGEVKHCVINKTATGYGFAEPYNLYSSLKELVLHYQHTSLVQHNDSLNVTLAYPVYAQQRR
T1 sequence (P42345 1362-2549 limits assumed): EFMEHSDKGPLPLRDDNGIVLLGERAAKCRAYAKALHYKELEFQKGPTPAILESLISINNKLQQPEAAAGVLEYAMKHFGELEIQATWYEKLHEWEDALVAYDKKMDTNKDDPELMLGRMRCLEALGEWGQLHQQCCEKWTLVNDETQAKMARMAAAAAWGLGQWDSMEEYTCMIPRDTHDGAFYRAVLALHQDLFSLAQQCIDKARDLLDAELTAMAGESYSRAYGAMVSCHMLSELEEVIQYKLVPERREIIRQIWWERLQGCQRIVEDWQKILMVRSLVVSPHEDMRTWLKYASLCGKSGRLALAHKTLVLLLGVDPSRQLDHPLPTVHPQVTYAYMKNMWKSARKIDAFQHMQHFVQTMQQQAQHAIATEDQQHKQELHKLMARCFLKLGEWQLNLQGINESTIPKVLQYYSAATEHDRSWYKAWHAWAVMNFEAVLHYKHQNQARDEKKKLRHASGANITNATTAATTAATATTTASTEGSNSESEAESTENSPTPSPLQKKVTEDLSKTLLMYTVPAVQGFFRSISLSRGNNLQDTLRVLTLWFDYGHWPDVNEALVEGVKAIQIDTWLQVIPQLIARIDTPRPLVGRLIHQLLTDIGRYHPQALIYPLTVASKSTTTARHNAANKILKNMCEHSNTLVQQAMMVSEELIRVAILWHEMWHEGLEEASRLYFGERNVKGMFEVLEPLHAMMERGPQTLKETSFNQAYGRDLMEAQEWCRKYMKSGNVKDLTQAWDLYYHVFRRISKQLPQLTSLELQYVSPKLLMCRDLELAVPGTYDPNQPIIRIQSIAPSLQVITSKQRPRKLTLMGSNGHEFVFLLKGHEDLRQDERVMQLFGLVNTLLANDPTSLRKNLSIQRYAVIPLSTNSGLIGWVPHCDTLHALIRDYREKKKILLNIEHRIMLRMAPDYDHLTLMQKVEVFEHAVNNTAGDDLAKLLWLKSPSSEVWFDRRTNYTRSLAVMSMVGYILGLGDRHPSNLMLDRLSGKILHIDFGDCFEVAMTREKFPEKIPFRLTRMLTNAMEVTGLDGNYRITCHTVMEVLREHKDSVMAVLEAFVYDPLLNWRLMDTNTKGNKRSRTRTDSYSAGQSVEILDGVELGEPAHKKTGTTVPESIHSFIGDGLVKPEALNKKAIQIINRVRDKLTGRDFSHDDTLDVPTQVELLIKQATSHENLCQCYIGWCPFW
Chain of PI3Kbeta (P42338 whole entry): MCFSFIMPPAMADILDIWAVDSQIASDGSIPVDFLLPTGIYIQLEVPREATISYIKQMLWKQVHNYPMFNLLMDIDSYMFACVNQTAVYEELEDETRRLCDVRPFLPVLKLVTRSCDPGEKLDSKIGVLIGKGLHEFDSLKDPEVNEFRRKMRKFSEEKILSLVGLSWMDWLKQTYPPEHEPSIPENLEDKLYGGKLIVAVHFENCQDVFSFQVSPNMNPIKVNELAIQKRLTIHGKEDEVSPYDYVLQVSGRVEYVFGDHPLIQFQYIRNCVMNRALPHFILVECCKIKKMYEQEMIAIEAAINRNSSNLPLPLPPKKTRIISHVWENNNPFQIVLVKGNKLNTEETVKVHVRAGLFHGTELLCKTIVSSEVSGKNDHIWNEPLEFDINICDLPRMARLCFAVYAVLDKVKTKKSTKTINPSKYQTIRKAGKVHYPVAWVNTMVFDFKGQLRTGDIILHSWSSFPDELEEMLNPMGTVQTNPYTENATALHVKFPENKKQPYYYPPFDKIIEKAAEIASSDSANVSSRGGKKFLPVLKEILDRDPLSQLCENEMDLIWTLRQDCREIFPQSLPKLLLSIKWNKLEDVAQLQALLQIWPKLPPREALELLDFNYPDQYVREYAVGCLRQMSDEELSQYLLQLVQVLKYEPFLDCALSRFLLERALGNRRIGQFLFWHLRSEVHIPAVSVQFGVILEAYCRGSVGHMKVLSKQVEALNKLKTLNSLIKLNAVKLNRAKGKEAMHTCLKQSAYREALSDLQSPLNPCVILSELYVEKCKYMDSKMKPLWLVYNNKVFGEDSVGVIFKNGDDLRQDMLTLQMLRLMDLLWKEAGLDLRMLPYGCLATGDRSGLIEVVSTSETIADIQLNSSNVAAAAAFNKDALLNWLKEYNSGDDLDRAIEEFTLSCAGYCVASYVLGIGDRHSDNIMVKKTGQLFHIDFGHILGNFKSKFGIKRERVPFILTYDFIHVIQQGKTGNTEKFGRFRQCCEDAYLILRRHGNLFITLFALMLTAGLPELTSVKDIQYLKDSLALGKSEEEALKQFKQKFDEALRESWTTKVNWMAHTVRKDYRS
Chain of PI3Kbeta (P27986 whole entry partner): as the sequence (P27986 whole entry partner) above

Molecule `O=c1[nH]cc(-c2cc(-c3cnc4ccccc4c3)ccn2)n1-c1ccc(N2CCNCC2)c(C(F)(F)F)c1` [Example A5, 1-(4-piperazin-1-yl-3-trifluoromethylphenyl)-5-(4-quinolin-3-ylpyridin-2-yl)-1,3-dihydroimidazol-2-one] displayed a melting point of 155 °C. In addition, the IC50 at DNA-PK protein complex was 100 to 10000 nM. The IC50 in data set [1] fell in the range of 0.1 to 10 µM. Further, the IC50 on PI3Kalpha fell in the range of 100 to 10000 nM. The Kd in data set [2] lay in the range of 100 to 10000 nM. On PI3Kbeta, the IC50 was 0.1 to 10 µM.

Molecule `COc1cc(-c2ccnc(-c3cn(C)c(=O)n3-c3ccc(C(C)(C)C#N)cc3)c2)ccn1` [Example A6, 2-{4-[5-(2′-Methoxy-[4,4′]bipyridinyl-2-yl)-3-methyl-2-oxo-2,3-dihydroimidazol-1-yl]phenyl}-2-methylpropionitrile] came in with a melting point of 138 °C. The same molecule displayed a 50% inhibitory concentration (IC50) on DNA-PK protein complex of 100 to 10000 nM. For the same molecule, the half-maximal inhibitory concentration (IC50) in data set [1] is over 10 µM. Further, the half-inhibitory concentration (IC50) at PI3Kalpha lay in the range of 100 to 10000 nM. Moreover, the Kd in data set [2] was 100 to 10000 nM. Also, the IC50 on PI3Kbeta was in the range of 0.1 to 10 µM.

`Cc1nc2cc(-c3ccnc(-c4cn(C)c(=O)n4-c4ccc(C(C)(C)C#N)cc4)c3)cnc2[nH]1` [Example A7, 2-Methyl-2-(4-{3-methyl-5-[4-(2-methyl-3H-imidazo[4,5-b]pyridin-6-yl)pyridin-2-yl]-2-oxo-2,3-dihydroimidazol-1-yl}phenyl)propionitrile]: the melting point was found to be 288 °C. In addition, on DNA-PK protein complex, the half-inhibitory concentration (IC50) was 100 to 10000 nM. Further, the IC50 in data set [1] was 0.1 to 10 µM. The IC50 at PI3Kalpha is 0.1 to 100 nM. Moreover, the Kd in data set [2] lay within 0.1 to 100 nM. The IC50 at PI3Kbeta was 0.1 to 10 µM.

`Cn1cc(-c2cc(-c3ccc(N)nc3)ccn2)n(-c2ccc(C(C)(C)C#N)cc2)c1=O` [Example A8, 2-{4-[5-(6-Amino-[3,4′]bipyridinyl-2′-yl)-3-methyl-2-oxo-2,3-dihydroimidazol-1-yl]phenyl}-2-methylpropionitrile] registered a melting point of 252 °C. Besides, the IC50 against DNA-PK protein complex fell in the range of 100 to 10000 nM. The IC50 in data set [1] lay within 0.1 to 10 µM. Besides, on PI3Kalpha, the IC50 lay within 0.1 to 100 nM. Further, the Kd in data set [2] was 0.1 to 100 nM. Moreover, the IC50 on PI3Kbeta fell in the range of 0.1 to 10 µM.

`Cn1cc(-c2cc(-c3cccnc3)ccn2)n(-c2ccc(C(C)(C)C#N)cc2)c1=O` [Example A10, 2-[4-(5-[3,4′]Bipyridinyl-2′-yl-3-methyl-2-oxo-2,3-dihydroimidazol-1-yl)phenyl]-2-methylpropionitrile] displayed a melting point of 180 °C. Besides, the IC50 on DNA-PK protein complex fell in the range of 0.1 to 100 nM. The IC50 in data set [1] was over 10 µM. The IC50 at PI3Kalpha lay within 100 to 10000 nM. Further, in data set [2], the Kd lay in the range of 100 to 10000 nM. The IC50 on PI3Kbeta was 0.1 to 10 µM.

Take `Cn1cc(-c2cc(-c3ccncc3)ccn2)n(-c2ccc(C(C)(C)C#N)cc2)c1=O` [Example A11, 2-[4-(5-[4,4′]Bipyridinyl-2-yl-3-methyl-2-oxo-2,3-dihydroimidazol-1-yl)phenyl]-2-methylpropionitrile]: the melting point stood at 226 °C. This molecule gave a half-inhibitory concentration (IC50) at DNA-PK protein complex of 0.1 to 100 nM. The IC50 in data set [1] was over 10 µM. Also, the IC50 at PI3Kalpha is 100 to 10000 nM. Further, at PI3Kbeta, the IC50 is over 10 µM.

Regarding `COc1ccc(-c2ccnc(-c3c[nH]c(=O)n3-c3ccc(C(C)(C)C#N)cc3)c2)cn1` [Example A15, 2-{4-[5-(6-Methoxy-[3,4′]bipyridinyl-2′-yl)-2-oxo-2,3-dihydroimidazol-1-yl]-10 phenyl}-2-methylpropionitrile], the melting point worked out at 277 °C. The IC50 against DNA-PK protein complex fell in the range of 100 to 10000 nM. For the same molecule, the IC50 in data set [1] fell in the range of 0.1 to 10 µM. Further, the IC50 on PI3Kalpha lay within 100 to 10000 nM. Besides, the Kd in data set [2] was 100 to 10000 nM. Moreover, the IC50 on PI3Kbeta is 0.1 to 10 µM.

Take `CC(C)(CN)c1ccc(-n2c(-c3cc(-c4cnc5ccccc5c4)ccn3)c[nH]c2=O)cc1` [Example A16, 1-[4-(2-Amino-1,1-dimethylethyl)phenyl]-5-(4-quinolin-3-ylpyridin-2-yl)-1,3-dihydroimidazol-2-one]: the melting point lay in the range of 244 to 247 °C. In addition, the IC50 against DNA-PK protein complex fell in the range of 100 to 10000 nM. Besides, in data set [1], the IC50 is over 10 µM. The IC50 on PI3Kalpha was in the range of 100 to 10000 nM. Further, in data set [2], the Kd is 100 to 10000 nM. Further, the IC50 at PI3Kbeta is 0.1 to 10 µM.

Molecule `CC(C)(C#N)c1ccc(-n2c(-c3cc(-c4cnc5ccccc5c4)ccn3)c[nH]c2=O)cc1` [Example A17, 2-Methyl-2-{4-[2-oxo-5-(4-quinolin-3-ylpyridin-2-yl)-2,3-dihydroimidazol-1-yl]-phenyl}propionitrile] yielded a melting point of 271 °C. On DNA-PK protein complex, this molecule displayed an IC50 of 100 to 10000 nM. For the same molecule, the IC50 in data set [1] was in the range of 0.1 to 10 µM. The IC50 on PI3Kalpha lay in the range of 100 to 10000 nM. The Kd in data set [2] was in the range of 100 to 10000 nM. The IC50 at PI3Kbeta was in the range of 0.1 to 10 µM.

`Cn1cc(-c2cc(-c3cnc4ccccc4c3)ccn2)n(-c2ccc(C(C)(C)CN)cc2)c1=O` [Example A30, 3-[4-(2-Amino-1,1-dimethylethyl)phenyl]-1-methyl-4-(4-quinolin-3-ylpyridin-2-yl)-1,3-dihydroimidazol-2-one] showed a melting point of 132 °C. Moreover, at DNA-PK protein complex, the IC50 lay within 100 to 10000 nM. Besides, the IC50 in data set [1] was over 10 µM. Besides, the IC50 on PI3Kalpha was in the range of 100 to 10000 nM. Also, on PI3Kbeta, the 50% inhibitory concentration (IC50) is over 10 µM.

`Cn1cc(-c2cc(-c3cnc4c(c3)CCC(=O)N4)ccn2)n(-c2ccc(C(C)(C)C#N)cc2)c1=O` [Example A45, 2-Methyl-2-(4-{3-methyl-2-oxo-5-[4-(7-oxo-5,6,7,8-tetrahydro-[1,8]naphthyridin-3-yl)pyridin-2-yl]-2,3-dihydroimidazol-1-yl}phenyl)propionitrile]: the melting point amounted to 284 °C. On DNA-PK protein complex, this molecule yielded an IC50 of 0.1 to 100 nM. Besides, the IC50 in data set [1] is 0.1 to 10 µM. Besides, the IC50 on PI3Kalpha is 0.1 to 100 nM. Further, at PI3Kbeta, the IC50 fell in the range of 0.1 to 10 µM.

Consider `CN1CCN(c2ccc(-n3c(-c4cc(-c5cnc6[nH]c(C(F)(F)F)cc6c5)ccn4)cn(C)c3=O)cc2C(F)(F)F)CC1` [Example A87, 1-Methyl-3-[4-(4-methylpiperazin-1-yl)-3-trifluoromethylphenyl]-4-[4-(2-trifluoro-methyl-1H-pyrrolo[2,3-b]pyridin-5-yl)pyridin-2-yl]-1,3-dihydroimidazol-2-one], for which the IC50 lay within 0.1 to 100 nM on DNA-PK protein complex; 0.1 to 10 µM on mTOR; 0.1 to 10 µM in data set [1]; 100 to 10000 nM on PI3Kalpha; 0.1 to 10 µM on PI3Kbeta. Further, the Kd in data set [2] fell in the range of 100 to 10000 nM.

As for `Cn1cc(-c2cc(-c3ccc4ncncc4c3)ccn2)n(-c2ccc(C(C)(C)C#N)cc2)c1=O` [Example A91, 2-Methyl-2-{4-[3-methyl-2-oxo-5-(4-quinazolin-6-ylpyridin-2-yl)-2,3-dihydro-imidazol-1-yl]phenyl}propionitrile], the IC50 against DNA-PK protein complex is 0.1 to 100 nM; against mTOR, 0.1 to 10 µM; in data set [1], over 10 µM; at PI3Kalpha, 100 to 10000 nM; on PI3Kbeta, over 10 µM. Further, in data set [2], the Kd fell in the range of 100 to 10000 nM.

`Cn1cc(-c2cc(-c3cnc4[nH]c(C(C)(C)C)cc4c3)ccn2)n(-c2ccc(C(C)(C)C#N)cc2)c1=O` [Example A92, 2-(4-{5-[4-(2-tert-Butyl-1H-pyrrolo[2,3-b]pyridin-5-yl)pyridin-2-yl]-3-methyl-2-oxo-2,3-dihydroimidazol-1-yl}phenyl)-2-methylpropionitrile]: the IC50 is 0.1 to 100 nM on DNA-PK protein complex; 0.1 to 10 µM against mTOR; over 10 µM in data set [1]; 100 to 10000 nM at PI3Kalpha; 0.1 to 10 µM on PI3Kbeta. Besides, the Kd in data set [2] was 100 to 10000 nM.

With `Cn1cc(-c2cc(-c3ccc(N)c(C(F)(F)F)c3)ccn2)n(-c2ccc(C(C)(C)C#N)cc2)c1=O` [Example A93, 2-(4-{5-[4-(4-Amino-3-trifluoromethylphenyl)pyridin-2-yl]-3-methyl-2-oxo-2,3-dihydroimidazol-1-yl}phenyl)-2-methylpropionitrile], the IC50 was 0.1 to 100 nM on DNA-PK protein complex; 0.1 to 10 µM on mTOR; 0.1 to 10 µM in data set [1]; 100 to 10000 nM on PI3Kalpha; 0.1 to 10 µM on PI3Kbeta. Further, in data set [2], the Kd lay within 0.1 to 100 nM.

As for `Cn1cc(-c2cc(-c3cnc4[nH]ccc4c3)ccn2)n(-c2cc(F)cc(C#N)c2)c1=O` [Example A96, 3-Fluoro-5-{3-methyl-2-oxo-5-[4-(1H-pyrrolo[2,3-b]pyridin-5-yl)pyridin-2-yl]-2,3-dihydroimidazol-1-yl}benzonitrile], the IC50 lay within 0.1 to 100 nM at DNA-PK protein complex; 0.1 to 10 µM against mTOR; 0.1 to 10 µM in data set [1]; 100 to 10000 nM on PI3Kalpha; 0.1 to 10 µM on PI3Kbeta. Also, the equilibrium dissociation constant (Kd) in data set [2] fell in the range of 100 to 10000 nM.

Molecule `Cn1cc(-c2cc(-c3cnc4[nH]cc(F)c4c3)ccn2)n(-c2ccc(F)c(C(F)(F)F)c2)c1=O` [Example A105, 4-[4-(3-Fluoro-1H-pyrrolo[2,3-b]pyridin-5-yl)pyridin-2-yl]-3-(4-fluoro-3-trifluoro-methylphenyl)-1-methyl-1,3-dihydroimidazol-2-one] yielded a melting point of 268 °C. The same molecule had an IC50 on DNA-PK protein complex of 100 to 10000 nM. For the same molecule, the IC50 in data set [1] lay within 0.1 to 10 µM.
